Data taken from patent US20030092636A1, “Treatment and prevention of paresthesia comprising co-therapy with anticonvulsant derivatives and potassium” (priority 2001, published 2003).
Read-outs that look alike come from different tables or passages of the source.

Assays:
paresthesias [1] = assay: Anecdotal case studies: potassium supplementation in patients with persistent paresthesias; assay type: in vivo, human
paresthesias [2] = assay: Single-patient case reports: potassium chloride given to patients with paresthesias while taking topiramate; assay type: in vivo, human; conditions: potassium chloride 20 mEq/day
Protocol: The patient was a person who had cluster headaches. The patient was taking topiramate at 150 mg/day. They complained of paresthesias. The patient was given potassium chloride at 20 mEq/day.
The patient was a person who had migraine headaches and who was taking topiramate at 150 mg/day. They complained of paresthesias and was given potassium chloride at 20 mEq/day.
The patient was a person who had migraine headaches and was taking topiramate at 200 mg/day. They complained of paresthesias and was given potassium chloride at 20 mEq/day.
The patient was a person who had migraine headaches and was taking topiramate at 125 mg/day. They complained of paresthesias and was given potassium chloride at 20 mEq/day.
The patient was a person who had migraine headaches and was taking topiramate at 50 mg/day. They complained of paresthesias and was given potassium chloride at 20 mEq/day.

[3] = infusion into an epidural catheter; cited from earlier work
paresthesia = conditions: intravenous potassium chloride in combination with spirocolactone; patient with hypokalemia and painful leg paresthesia; cited from earlier work
[4] = system: simple and complex partial seizures and secondarily generalized seizures; conditions: adjunctive therapy or monotherapy; human epilepsy; cited from earlier work
[5] = cited from earlier work
seizures [6] = conditions: several rodent models of epilepsy; cited from earlier work
seizures [7] = conditions: animal model of kindled epilepsy; cited from earlier work

In the case of `[Cl-].[K+]` [potassium chloride], the “effect on persistent paresthesias” value (paresthesias [1]; patients complaining of persistent paresthesias, 20-40 meq/day potassium chloride) is reported as “control of the paresthesias”, the “effect on paresthesias and severity” value (paresthesias [1]; potassium chloride and food (orange juice and bananas) supplementation) is reported as “effective in decreasing paresthesias and its severity” and the paresthesias outcome (paresthesias [2]; Example 3: person, cluster headaches, topiramate 150 mg/day, within 9 days) is reported as “paresthesias had abated”. The paresthesias outcome (paresthesias [2]; Example 4: person, migraine, topiramate 150 mg/day, after about one month) was “paresthesias had abated”, the paresthesias outcome (paresthesias [2]; Example 5: person, migraine, topiramate 200 mg/day, after about two months) was “paresthesias had abated” and the paresthesias outcome (paresthesias [2]; Example 6: person, migraine, topiramate 125 mg/day, after about one month) was “paresthesias had abated”. The paresthesias outcome (paresthesias [2]; Example 7: person, migraine, topiramate 50 mg/day, after one month) was “paresthesias had abated”, the “effect of inadvertent epidural infusion” value [3] was “paresis (slight paralysis or weakness of a limb) and/or painful paraesthesias in the patient's extremities” and the outcome of treatment (paresthesia) was “stabilization of serum potassium, disappearance of paresthesia and normalization of muscle function and ECG”.

For `CC1(C)O[C@@H]2[C@@H](CO[C@@]3(COS(N)(=O)=O)OC(C)(C)O[C@@H]23)O1` [topiramate, 2,3:4,5-bis-O-(1-methylethylidene)-β-D-fructopyranose sulfamate], the “efficacy in treating seizures” value [4] is given as “effective as adjunctive therapy or as monotherapy”, the “adverse event or side effect” value ([5]; patients treated for epilepsy, migraine headaches, bipolar disorder) is given as “paresthesia” and the “severity of the paresthesia” value ([5]; patients treated with topiramate) is given as “mild to severe”. For the same molecule, the seizure block (seizures [6]) was “effectively block seizures” and the seizure block (seizures [7]) was “effectively block seizures”.
